Laboratory results as given in patent US8629168B2, “Benzoxazoles and oxazolopyridines being useful as janus kinases inhibitors” (priority 2006, dated 2014).

Experiments:
GST-JAK2 = target: T1, GST-JAK2 (Homo sapiens, UniProt O60674); test: JAK2 kinase assay of the general description (alternative method, flash plate); format: biochemical; conditions: 1.0 μM ATP, read-out: IC50 with test in general description (named “alternative method to that given in the examples”) (“flash plate”)
T1 construct: the amino acid domain ASP751-VAL1129 of the JAK2 protein
T1 sequence (O60674 751-1129): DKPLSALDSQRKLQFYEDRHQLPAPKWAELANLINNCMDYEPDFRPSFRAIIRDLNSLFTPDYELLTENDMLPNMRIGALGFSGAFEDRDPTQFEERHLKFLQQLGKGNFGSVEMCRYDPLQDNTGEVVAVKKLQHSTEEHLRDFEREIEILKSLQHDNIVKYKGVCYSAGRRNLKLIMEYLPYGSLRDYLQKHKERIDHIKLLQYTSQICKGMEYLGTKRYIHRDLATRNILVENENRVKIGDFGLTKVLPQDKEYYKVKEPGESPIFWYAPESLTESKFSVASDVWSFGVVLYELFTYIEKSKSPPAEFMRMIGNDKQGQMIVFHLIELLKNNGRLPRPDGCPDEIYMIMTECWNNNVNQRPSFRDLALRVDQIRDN
Description: Baculovirus including the amino acid domain ASP751-VAL1129 of the JAK2 protein is obtainable by ProQinase, Freiburg, Germany. The virus is scaled up as following: Virus containing media is collected from the transfected cell culture and used for infection to increase its titer. Virus containing media obtained after two rounds of infection is used for large-scale protein expression. For large-scale protein expression 100 cm^2 round tissue culture plates are seeded with 5×10^7 cells/plate and infected with 1 mL of virus-containing media (approx. 5 MOIs). After 3 days the cells are scraped off the plate and centrifuged at 500 rpm for 5 min. Cell pellets from 10-20, 100 cm^2 plates, are re-suspended in 50 mL of ice-cold lysis buffer (25 mMTris-HCl, pH7.5, 2 mMEDTA, 1% NP-40, 1 mM DTT, 1 mMP MSF). The cells are stirred on ice for 15 min and then centrifuged at 5000 rpms for 20 min. The protein is purified by loading the centrifuged cell lysate onto a 2 mL glutathione-sepharose column and washed three times with 10 mL of 25 mM Tris-HCl, pH 7.5, 2 mM EDTA, 1 mM DTT, 200 mM NaCl. The GST-tagged proteins are then eluted by 10 applications (1 mL each) of 25 mM Tris-HCl, pH 7.5, 10 mM reduced-glutathione, 100 mM NaCl, 1 mM DTT, 10% Glycerol and stored at −70° C.
Cancer Cell; 5: 231-239]. The test compound is dissolved in DMSO (10 mM) and stored at −20° C. Serial dilutions are freshly made in DMSO and are […] concentrated than test solutions (“pre-dilution plates”). They are further diluted with pure water to yield “master plates” containing 3 times concentrated test solutions in 3% DMSO. The final volume of the assay is 30 μL containing 10 μL of test solution (1% DMSO), 10 μL assay mix including the assay components described by Garcia-Echeverria (2004) and in the following section as well as 10 μL enzyme. The pipetting steps can be programmed to be performed either on the MultiPROBE Iix, MultiPROBE IILx or HamiltonSTAR robots in the 96 well format.
The protein kinase assays are carried as described in details by Garcia-Echeverria (see above). The assay for JAK2 is carried out in 96-well plates at ambient temperature for 10 min (filter-biding method) or 30 min (flash plates) in a finial volume of 30 μL including the following components: 300 ng of GST-JAK2, 20 mM Tris-HCl, pH 7.5, 1.0 mM MnCl2, 10 mM MgCl2, 1 mM DTT, 3 μg/mL poly(Glu, Tyr) 4:1, 1% DMSO and 1.0 μM ATP (γ-[^33P]-ATP 0.1 μCi); The assays are terminated by the addition of 20 μl of 125 mM EDTA. The capturing of the phosphorylated peptides by the filter-binding method is performed as following: 40 μL of the reaction mixture are transferred onto Immobilon-PVDF membranes previously soaked for 5 min with methanol, rinsed with water, then soaked for 5 min with 0.5% H3PO4 and mounted on vacuum manifold with disconnected vacuum source. After spotting all samples, vacuum is connected and each well rinsed with 200 μl 0.5% H3PO4. Free membranes are removed and washed 4× on a shaker with 1.0% H3PO4, once with ethanol. Membranes are counted after drying at ambient temperature, mounting in Packard TopCount 96-well frame, and addition of 10 μl/well of Microscint. The plates are eventually sealed and counted in a microplate scintillation counter (TopCount NXT, TopCount NXT HTS, PerkinElmer, Brussels, Belgium).
The assays for the flash plate method is carried out in a total volume of 30 μL at RT in conventional 96-well flash plates. The reaction is stopped after 30 min by the addition of 20 μL of 125 mM EDTA The assay plates are then washed three times with PBS and dried at room temperature. The plates are sealed and counted in a microplate scintillation counter (TopCount NXT, TopCount NXT HTS). IC50 values are calculated by linear regression analysis of the percentage inhibition of the compound either in duplicate, at four concentrations (usually 0.01, 0.1, 1 and 10 μM) or as 8 single point IC50 starting at 10 μM following by 1:3 dilutions.

GST-JAK2(808-1132) = target: T2, GST-JAK2(808-1132) (Homo sapiens, UniProt O60674); test: EPK JAK/TYK-kinase family profiling assay (Caliper mobility shift), JAK2; format: biochemical; conditions: Caliper mobility shift assay of Example 187, 20 μM ATP, read-out: IC50 with Test in present Example
T2 construct: GST-JAK2(808-1132) is purchased from Invitrogen; purchased Invitrogen (Carlsbad, USA) #4288
T2 sequence (O60674 808-1132): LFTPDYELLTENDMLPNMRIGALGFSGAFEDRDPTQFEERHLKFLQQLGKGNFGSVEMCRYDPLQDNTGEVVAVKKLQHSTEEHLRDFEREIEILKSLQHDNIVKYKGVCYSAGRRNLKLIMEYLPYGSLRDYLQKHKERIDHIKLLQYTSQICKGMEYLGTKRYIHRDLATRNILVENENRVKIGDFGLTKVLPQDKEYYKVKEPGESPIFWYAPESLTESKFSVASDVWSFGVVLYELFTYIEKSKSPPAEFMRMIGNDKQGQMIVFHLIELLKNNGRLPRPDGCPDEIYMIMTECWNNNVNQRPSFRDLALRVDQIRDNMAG
In short: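 Caliper mobility-shift assay with the GST-tagged kinase domain and a fluorescently labeled peptide substrate plus ATP, run 60 min at 30° C and then stopped with EDTA buffer. Turnover was taken as the substrate/product ratio. Compounds were tested at eight final concentrations from 10 to 0.003 μM.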

Row | Structure (SMILES) | IC50 (GST-JAK2) | melting point | IC50 (GST-JAK2(808-1132))
1 | COc1cc(Nc2nc3cccc(-c4ccc5ncccc5c4)c3o2)cc(OC)c1OC [Example 15, (7-Quinolin-6-yl-benzooxazol-2-yl)-(3,4,5-trimethoxy-phenyl)-amine] | 570 nM | 187 to 190 °C | 
2 | COc1cc(Nc2nc3cccc(-c4ccc(C(N)=O)cc4)c3o2)cc(OC)c1OC [Example 16, 4-[2-(3,4,5-Trimethoxy-phenylamino)-benzooxazol-7-yl]-benzamide] | 93 nM | > 280 °C | 35 nM
3 | COc1cc(Nc2nc3cccc(-c4ccc(S(C)(=O)=O)cc4)c3o2)cc(OC)c1OC [Example 17, [7-(4-Methanesulfonyl-phenyl)-benzooxazol-2-yl]-(3,4,5-trimethoxy-phenyl)-amine] | 40 nM | 205 to 207 °C | 12 nM
4 | COc1cc(Nc2nc3cccc(-c4ccc(S(N)(=O)=O)cc4)c3o2)cc(OC)c1OC [Example 18, 4-[2-(3,4,5-Trimethoxy-phenylamino)-benzooxazol-7-yl]-benzenesulfonamide] | 10 nM | 247 to 252 °C | 10 nM
5 | COc1cc(Nc2nc3cccc(-c4ccc(C#N)cc4)c3o2)cc(OC)c1OC [Example 19, 4-[2-(3,4,5-Trimethoxy-phenylamino)-benzooxazol-7-yl]-benzonitrile] | 170 nM | 222 to 223 °C | 
6 | COc1cc(Nc2nc3cccc(-c4ccn[nH]4)c3o2)cc(OC)c1OC [Example 20, [7-(2H-Pyrazol-3-yl)-benzooxazol-2-yl]-(3,4,5-trimethoxy-phenyl)-amine] | 1000 nM | 185 to 189 °C | 
7 | CNS(=O)(=O)c1ccc(-c2cccc3nc(Nc4cc(OC)c(OC)c(OC)c4)oc23)cc1 [Example 21, N-Methyl-4-[2-(3,4,5-trimethoxy-phenylamino)-benzooxazol-7-yl]-benzenesulfonamide] | 16 nM | 260 to 262 °C | 19 nM
8 | COc1cc(Nc2nc3cccc(-c4ccc(S(=O)(=O)N(C)C)cc4)c3o2)cc(OC)c1OC [Example 22, N,N-Dimethyl-4-[2-(3,4,5-trimethoxy-phenylamino)-benzooxazol-7-yl]-benzenesulfonamide] | 140 nM | 230 to 233 °C | 
9 | COc1cc(Nc2nc3cccc(-c4ccc(S(=O)(=O)N5CCOCC5)cc4)c3o2)cc(OC)c1OC [Example 23, {7-[4-(Morpholine-4-sulfonyl)-phenyl]-benzooxazol-2-yl}-(3,4,5-trimethoxy-phenyl)-amine] | 190 nM | 201 to 203 °C | 
10 | CNC(=O)c1ccc(-c2cccc3nc(Nc4cc(OC)c(OC)c(OC)c4)oc23)cc1 [Example 24, N-Methyl-4-[2-(3,4,5-trimethoxy-phenylamino)-benzooxazol-7-yl]-benzamide] | 79 nM | 258 to 259 °C | 19 nM
11 | COc1cc(Nc2nc3cccc(-c4ccc(C(=O)N(C)C)cc4)c3o2)cc(OC)c1OC [Example 25, N,N-Dimethyl-4-[2-(3,4,5-trimethoxy-phenylamino)-benzooxazol-7-yl]-benzamide] | 140 nM | > 280 °C | 
12 | COc1cc(Nc2nc3cccc(-c4cccc(NC(C)=O)c4)c3o2)cc(OC)c1OC [Example 28, N-{3-[2-(3,4,5-Trimethoxy-phenylamino)-benzooxazol-7-yl]-phenyl}-acetamide] | 310 nM | 170 to 172 °C | 
13 | COc1cc(Nc2nc3cccc(-c4cccc(CN)c4)c3o2)cc(OC)c1OC [Example 32, [7-(3-Aminomethyl-phenyl)-benzooxazol-2-yl]-(3,4,5-trimethoxy-phenyl)-amine] | 270 nM | 145 to 150 °C | 
14 | COc1cc(Nc2nc3cccc(-c4cccc(CNC(C)=O)c4)c3o2)cc(OC)c1OC [Example 33, N-{3-[2-(3,4,5-Trimethoxy-phenylamino)-benzooxazol-7-yl]-benzyl}-acetamide] | 290 nM | 203 to 204 °C | 
15 | COc1cc(Nc2nc3ccnc(-c4cccc(N)c4)c3o2)cc(OC)c1OC [Example 37, [4-(3-Amino-phenyl)-oxazolo[5,4-c]pyridin-2-yl]-(3,4,5-trimethoxy-phenyl)-amine] | 240 nM | 120 to 126 °C | 
16 | COc1cc(Nc2nc3ccnc(-c4ccc(S(N)(=O)=O)cc4)c3o2)cc(OC)c1OC [Example 38, 4-[2-(3,4,5-Trimethoxy-phenylamino)-oxazolo[5,4-c]pyridin-4-yl]-benzenesulfonamide] | 450 nM | > 280 °C | 310 nM
17 | COc1cccc(-c2cccc3nc(Nc4ccc(N5CCOCC5)cc4)oc23)c1 [Example 39, [7-(3-Methoxy-phenyl)-benzooxazol-2-yl]-(4-morpholin-4-yl-phenyl)-amine] | 1200 nM | 180 to 182 °C | 
18 | Nc1ccc(-c2cccc3nc(Nc4ccc(N5CCOCC5)cc4)oc23)cc1 [Example 40, [7-(4-Aminophenyl)-benzooxazol-2-yl]-(4-morpholin-4-yl-phenyl)-amine] | 1100 nM | 241 to 243 °C | 
19 | Nc1cccc(-c2cccc3nc(Nc4ccc(N5CCOCC5)nc4)oc23)c1 [Example 42, [7-(3-Amino-phenyl)-benzooxazol-2-yl]-(6-morpholin-4-yl-pyridin-3-yl)-amine] | 1200 nM | 235 to 237 °C | 
